PubChem BioAssay (NCI)
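Cells were grown in 96-well plates and exposed to each compound for 48 hours at five concentrations; endpoints were interpolated linearly between bracketing concentrations, or set to the highest concentration if not reached. At the TGI there is no net growth.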

How the values were obtained:
Assay in all cases: NCI anticancer screen, dose series, 48 h
786-0 renal = system: 786-0 renal
A549 NSCLC = system: A549 NSCLC
BT-549 breast = system: BT-549 breast
CAKI-1 renal = system: CAKI-1 renal
CCRF-CEM leukemia = system: CCRF-CEM leukemia
COLO 205 colon = system: COLO 205 colon
DU-145 prostate = system: DU-145 prostate
EKVX NSCLC = system: EKVX NSCLC
HCT-116 colon = system: HCT-116 colon
HCT-15 colon = system: HCT-15 colon
HL-60(TB) leukemia = system: HL-60(TB) leukemia
HOP-62 NSCLC = system: HOP-62 NSCLC
HOP-92 NSCLC = system: HOP-92 NSCLC
HS 578T breast = system: HS 578T breast
HT29 colon = system: HT29 colon
IGROV1 ovarian = system: IGROV1 ovarian
K-562 leukemia = system: K-562 leukemia
KM12 colon = system: KM12 colon
LOX IMVI melanoma = system: LOX IMVI melanoma
M14 melanoma = system: M14 melanoma
MALME-3M melanoma = system: MALME-3M melanoma
MCF7 breast = system: MCF7 breast
MDA-MB-231 breast = system: MDA-MB-231 breast
MDA-MB-435 = system: MDA-MB-435
MDA-N = system: MDA-N
MOLT-4 leukemia = system: MOLT-4 leukemia
NCI-H226 lung = system: NCI-H226 lung
NCI-H23 lung = system: NCI-H23 lung
NCI-H522 lung = system: NCI-H522 lung
NCI/ADR-RES ovarian = system: NCI/ADR-RES ovarian
OVCAR-3 ovarian = system: OVCAR-3 ovarian
OVCAR-4 ovarian = system: OVCAR-4 ovarian
OVCAR-5 ovarian = system: OVCAR-5 ovarian
OVCAR-8 ovarian = system: OVCAR-8 ovarian
PC-3 prostate = system: PC-3 prostate
RPMI-8226 leukemia = system: RPMI-8226 leukemia
RXF 393 renal = system: RXF 393 renal
SF-268 CNS = system: SF-268 CNS
SF-295 CNS = system: SF-295 CNS
SF-539 CNS = system: SF-539 CNS
SK-MEL-2 melanoma = system: SK-MEL-2 melanoma
SK-MEL-28 melanoma = system: SK-MEL-28 melanoma
SK-MEL-5 melanoma = system: SK-MEL-5 melanoma
SK-OV-3 ovarian = system: SK-OV-3 ovarian
SN12C renal = system: SN12C renal
SNB-19 CNS = system: SNB-19 CNS
SNB-75 CNS = system: SNB-75 CNS
SW-620 colon = system: SW-620 colon
TK-10 renal = system: TK-10 renal
U251 CNS = system: U251 CNS
UACC-257 melanoma = system: UACC-257 melanoma
UACC-62 melanoma = system: UACC-62 melanoma
UO-31 renal = system: UO-31 renal
A498 renal = system: A498 renal
ACHN renal = system: ACHN renal
HCC-2998 colon = system: HCC-2998 colon
NCI-H460 lung = system: NCI-H460 lung
SR leukemia = system: SR leukemia
T-47D breast = system: T-47D breast

Question: How did the TGI (786-0 renal) turn out when `NS(=O)(=O)c1nnc(NC(=O)N(c2ccccc2)c2ccccc2)s1` was run?
Answer: > 100 µM

Question: What about the TGI (A549 NSCLC) of the same compound?
Answer: > 100 µM

Question: What about the TGI (BT-549 breast) of the same compound?
Answer: 42.2 µM

Question: What about the TGI (CAKI-1 renal) of the same compound?
Answer: > 100 µM

Question: What about the TGI (CCRF-CEM leukemia) of the same compound?
Answer: > 100 µM

Question: And the TGI (COLO 205 colon)?
Answer: > 100 µM

Question: And the TGI (DU-145 prostate)?
Answer: 41 µM

Question: What about the TGI (EKVX NSCLC) of the same compound?
Answer: 78.2 µM

Question: What about the TGI (HCT-116 colon) of the same compound?
Answer: 83.8 µM

Question: What about the TGI (HCT-15 colon) of the same compound?
Answer: > 100 µM

Question: What about the TGI (HL-60(TB) leukemia) of the same compound?
Answer: 48.2 µM

Question: What about the TGI (HOP-62 NSCLC) of the same compound?
Answer: 77.3 µM

Question: What about the TGI (HOP-92 NSCLC) of the same compound?
Answer: 53 µM

Question: What about the TGI (HS 578T breast) of the same compound?
Answer: 73 µM

Question: What about the TGI (HT29 colon) of the same compound?
Answer: > 100 µM

Question: What about the TGI (IGROV1 ovarian) of the same compound?
Answer: 52.6 µM

Question: What about the TGI (K-562 leukemia) of the same compound?
Answer: > 100 µM

Question: What about the TGI (KM12 colon) of the same compound?
Answer: 56.8 µM

Question: And the TGI (LOX IMVI melanoma)?
Answer: 40.2 µM

Question: What about the TGI (M14 melanoma) of the same compound?
Answer: 35.3 µM

Question: What about the TGI (MALME-3M melanoma) of the same compound?
Answer: 62.5 µM

Question: What about the TGI (MCF7 breast) of the same compound?
Answer: > 100 µM

Question: And the TGI (MDA-MB-231 breast)?
Answer: > 100 µM

Question: What about the TGI (MDA-MB-435) of the same compound?
Answer: 68.8 µM

Question: And the TGI (MDA-N)?
Answer: 88.3 µM

Question: And the TGI (MOLT-4 leukemia)?
Answer: > 100 µM

Question: What about the TGI (NCI-H226 lung) of the same compound?
Answer: > 100 µM

Question: And the TGI (NCI-H23 lung)?
Answer: 58.9 µM

Question: And the TGI (NCI-H522 lung)?
Answer: 40.9 µM

Question: And the TGI (NCI/ADR-RES ovarian)?
Answer: 44.4 µM

Question: What about the TGI (OVCAR-3 ovarian) of the same compound?
Answer: 69.7 µM

Question: What about the TGI (OVCAR-4 ovarian) of the same compound?
Answer: > 100 µM

Question: And the TGI (OVCAR-5 ovarian)?
Answer: 70.1 µM

Question: And the TGI (OVCAR-8 ovarian)?
Answer: 51.1 µM

Question: And the TGI (PC-3 prostate)?
Answer: > 100 µM

Question: What about the TGI (RPMI-8226 leukemia) of the same compound?
Answer: 49.4 µM

Question: And the TGI (RXF 393 renal)?
Answer: 51.4 µM

Question: What about the TGI (SF-268 CNS) of the same compound?
Answer: > 100 µM

Question: What about the TGI (SF-295 CNS) of the same compound?
Answer: > 100 µM

Question: What about the TGI (SF-539 CNS) of the same compound?
Answer: 34.7 µM

Question: And the TGI (SK-MEL-2 melanoma)?
Answer: 89.1 µM

Question: And the TGI (SK-MEL-28 melanoma)?
Answer: > 100 µM

Question: And the TGI (SK-MEL-5 melanoma)?
Answer: 67 µM

Question: And the TGI (SK-OV-3 ovarian)?
Answer: > 100 µM

Question: What about the TGI (SN12C renal) of the same compound?
Answer: 40.8 µM

Question: What about the TGI (SNB-19 CNS) of the same compound?
Answer: > 100 µM

Question: What about the TGI (SNB-75 CNS) of the same compound?
Answer: 72.4 µM

Question: What about the TGI (SW-620 colon) of the same compound?
Answer: > 100 µM

Question: And the TGI (TK-10 renal)?
Answer: > 100 µM

Question: What about the TGI (U251 CNS) of the same compound?
Answer: > 100 µM

Question: And the TGI (UACC-257 melanoma)?
Answer: > 100 µM

Question: And the TGI (UACC-62 melanoma)?
Answer: 59.1 µM

Question: And the TGI (UO-31 renal)?
Answer: > 100 µM

Question: Which TGI (786-0 renal) does the source give for `C[n+]1cc2cc(O)c(O)cc2c2ccc3cc(O)c(O)cc3c21` here?
Answer: 9.21 µM

Question: What about the TGI (A498 renal) of the same compound?
Answer: 11.8 µM

Question: And the TGI (A549 NSCLC)?
Answer: > 100 µM

Question: And the TGI (ACHN renal)?
Answer: > 100 µM

Question: What about the TGI (BT-549 breast) of the same compound?
Answer: 9.93 µM

Question: What about the TGI (CAKI-1 renal) of the same compound?
Answer: > 37.3 µM

Question: What about the TGI (CCRF-CEM leukemia) of the same compound?
Answer: 6.17 µM

Question: What about the TGI (COLO 205 colon) of the same compound?
Answer: > 84.5 µM

Question: And the TGI (DU-145 prostate)?
Answer: > 100 µM

Question: And the TGI (EKVX NSCLC)?
Answer: > 100 µM

Question: What about the TGI (HCC-2998 colon) of the same compound?
Answer: > 57.6 µM

Question: And the TGI (HCT-116 colon)?
Answer: 4.21 µM

Question: And the TGI (HCT-15 colon)?
Answer: > 34.2 µM

Question: What about the TGI (HOP-62 NSCLC) of the same compound?
Answer: 10.8 µM

Question: What about the TGI (HOP-92 NSCLC) of the same compound?
Answer: 11.5 µM

Question: What about the TGI (HT29 colon) of the same compound?
Answer: 66.9 µM

Question: And the TGI (IGROV1 ovarian)?
Answer: 4.75 µM

Question: And the TGI (K-562 leukemia)?
Answer: > 37.4 µM

Question: What about the TGI (KM12 colon) of the same compound?
Answer: > 100 µM

Question: And the TGI (LOX IMVI melanoma)?
Answer: 18.3 µM

Question: What about the TGI (M14 melanoma) of the same compound?
Answer: > 100 µM

Question: What about the TGI (MALME-3M melanoma) of the same compound?
Answer: 12.9 µM

Question: What about the TGI (MCF7 breast) of the same compound?
Answer: 9.09 µM

Question: And the TGI (MDA-MB-231 breast)?
Answer: > 100 µM

Question: What about the TGI (MDA-MB-435) of the same compound?
Answer: > 100 µM

Question: What about the TGI (MDA-N) of the same compound?
Answer: > 100 µM

Question: What about the TGI (MOLT-4 leukemia) of the same compound?
Answer: 11.2 µM

Question: And the TGI (NCI-H226 lung)?
Answer: > 48.2 µM

Question: And the TGI (NCI-H23 lung)?
Answer: 18.3 µM

Question: And the TGI (NCI-H460 lung)?
Answer: > 60.2 µM

Question: And the TGI (NCI-H522 lung)?
Answer: 3.43 µM

Question: And the TGI (NCI/ADR-RES ovarian)?
Answer: 6.67 µM

Question: What about the TGI (OVCAR-3 ovarian) of the same compound?
Answer: 7.96 µM

Question: What about the TGI (OVCAR-4 ovarian) of the same compound?
Answer: > 100 µM

Question: What about the TGI (OVCAR-5 ovarian) of the same compound?
Answer: > 100 µM

Question: And the TGI (OVCAR-8 ovarian)?
Answer: 11.4 µM

Question: What about the TGI (PC-3 prostate) of the same compound?
Answer: 34.4 µM

Question: And the TGI (RPMI-8226 leukemia)?
Answer: > 100 µM

Question: And the TGI (RXF 393 renal)?
Answer: 9.34 µM

Question: What about the TGI (SF-268 CNS) of the same compound?
Answer: 13.5 µM

Question: What about the TGI (SF-295 CNS) of the same compound?
Answer: 38.8 µM

Question: What about the TGI (SF-539 CNS) of the same compound?
Answer: 7.77 µM

Question: What about the TGI (SK-MEL-2 melanoma) of the same compound?
Answer: 12 µM

Question: What about the TGI (SK-MEL-28 melanoma) of the same compound?
Answer: > 100 µM

Question: And the TGI (SK-MEL-5 melanoma)?
Answer: > 54.8 µM

Question: And the TGI (SK-OV-3 ovarian)?
Answer: > 53 µM

Question: What about the TGI (SN12C renal) of the same compound?
Answer: 26 µM

Question: And the TGI (SNB-19 CNS)?
Answer: 16.5 µM

Question: And the TGI (SNB-75 CNS)?
Answer: 59.3 µM

Question: What about the TGI (SR leukemia) of the same compound?
Answer: 9.53 µM

Question: What about the TGI (SW-620 colon) of the same compound?
Answer: > 100 µM

Question: What about the TGI (T-47D breast) of the same compound?
Answer: > 100 µM

Question: What about the TGI (TK-10 renal) of the same compound?
Answer: > 73.2 µM

Question: What about the TGI (U251 CNS) of the same compound?
Answer: 9.91 µM

Question: And the TGI (UACC-257 melanoma)?
Answer: > 100 µM

Question: What about the TGI (UACC-62 melanoma) of the same compound?
Answer: 5.34 µM

Question: And the TGI (UO-31 renal)?
Answer: 5.61 µM
